Reference: patent US7517644B1, “Method and compositions for cellular reprogramming” (priority 1991, dated 2009)

Tests used:
8226/Dox cells = test: sensitization of P-glycoprotein-expressing drug-resistant cells to vincristine (Table XVII); format: cell-based, human; settings: for Fold increase in Drug Sensitivity: 8226/Dox6 cells, versus media control; for sensitization to vincristine: P-glycoprotein-expressing drug-resistant 8226/Dox
Procedure: To determine relative activity among the various MDR1 antisense ODNs, they were incubated at several different ODN concentrations in cell culture medium with the human multiple myeloma cell lines 8226/Dox4 or 8226/Dox6 (gifts of Dr. William Dalton, University of Arizona Cancer Center, Tucson) (Dalton et al., Cancer Res. 46: 5125, 1986). Specifically, the human myeloma cells were incubated with the antisense ODNs for four (4) days, in a humidified, 5% CO2 atmosphere containing a reduced oxygen level of 5%, maintained by purging the culture incubator with nitrogen gas in place of ambient room air. Addition of an antioxidant to the cultures during exposure of the cells to the ODN further reduces the effects of the free radicals induced by the ODNs on cells (this effect can include increased expression of MDR1). The cell cultures were then incubated with a chemotherapeutic anti-cancer agent overnight (15-18 hrs), after which the cell cultures were washed repeatedly and then seeded into 96-well microtest plates to permit quantitative analysis of their growth. Tritiated-thymidine was added to these cultures for 18-hrs prior to termination of the assays on day 4 following exposure to the anticancer agents. Each test combination of cells, antisense ODN and anti-cancer agent was run in quadruplicate replicates.

ovarian carcinoma = test: anticancer effect of junD ODN on solid tumors; format: cell-based
[1] = system: drug-sensitive (parent) cancer cell lines; test: drug sensitization of drug-sensitive (parent) cancer cell lines (Table XVII); format: cell-based, human
Excerpt: The enhanced reduction in P-glycoprotein expression due to the combined antisense and aptameric-like effects likely causes the associated reduction in cell proliferation. It has been previously shown that treating P-glycoprotein-expressing cells with monoclonal antibodies capable of binding to and blocking P-glycoprotein function leads to a substantial reduction in the proliferation of the treated cells. […] The term “aptameric-like” is used because the effect seen is seen with some sequences but not others (aptameric); aptameric-like effects are substantially more common among ODN sequences than are the usual aptameric effects. […] In general, this situation in which the antisense and an aptameric-like effect of an ODN both act to reduce expression of the same gene (e.g., MDR1) can be expected to be a very uncommon finding among antisense ODN therapeutics directed to other gene targets. […]

[2] = system: AML blast cells freshly obtained from patients; test: junD ODN on fresh AML blasts: suspension culture viable counts and blast colony assay; format: cell-based, human; settings: 7 days incubation, suspension culture viable cell counts
Procedure: In the initial tests, the H(1)junD oligo or a control ODN were incubated with AML blast cells for seven days. The blast cells were freshly obtained from patients with AML and were cultured and evaluated for ODN effects as described by Bayever et al.(Leukemia and Lymphoma 12: 223-231, 1994). In brief, after the incubation with ODNs, the blast cells were then washed, and adjusted to 10^5 cells per ml and continued in culture for several more days. Viable cell counts were performed every 2-3 days on suspension cultures and oligo-treated blast cells were plated in the “blast colony assay” to determine the effects of the ODNs on the leukemic stem cells.

[3] = system: DU-145 prostate cancer cells; test: sensitization of MRP-expressing prostate cancer cells to drug (Table XVII); format: cell-based, human

Row | Substance | cytotoxic or anticancer growth-inhibitory effect on malignant cell lines (malignant cell lines) | Fold increase in Drug Sensitivity (8226/Dox cells) | sensitization to vincristine (8226/Dox cells) | anticancer effects on solid tumors (ovarian carcinoma) | drug sensitization of drug-sensitive lines [1] | Fold increase in Drug Sensitivity ([1]; 8226/sensitive parent cells, versus media control) | antileukemic effect [2] | sensitization to chemotherapeutic agent ([3]; DU-145, express MRP and not P-glycoprotein) | Fold increase in Drug Sensitivity ([3]; DU-145 cells, versus media control)
1 | H(2)junD: junD antisense ODN, GCTCGTCGGC GTGGTGGTGA (antisense GCTCGTCGGCGTGGTGGTGA; DNA, backbone and methylation of C not given here; listed as Homo sapiens) | less of a cytotoxic or anticancer growth-inhibitory effect | 1091 | sensitize | – | – | – | – | – | –
2 | H(1)junD: junD antisense ODN, GTCGGCGTGG TGGTGA (antisense GTCGGCGTGGTGGTGA; DNA, backbone and methylation of C not given here; listed as Homo sapiens) | less of a cytotoxic or anticancer growth-inhibitory effect | 500 | sensitize | anticancer effects | minimal sensitizing potential | 3 | as great or a greater antileukemic effect than OL(1)p53 | sensitize | 19
